Laboratory results taken from PMC10762035, “Molecular basis of human trace amine-associated receptor 1 activation” (Nature Communications, 2024).
Changes are numbered by the printed parent chain. Values joined by “and” are separate entries in the source; they are usually repeats but may differ in a detail not shown here. Identical values can stand only once. Like-named read-outs stand apart in the source and are kept apart here.

What was measured:
hTA1 C178S = biological target: T1, hTA1 C178S (Homo sapiens, UniProt Q96RJ0, C178S); experiment: GloSensor cAMP accumulation assay, C178S mutant; type: cell-based; settings: for C178S - Normalized Luminescence Counts (N=2): log[Compound], single replicates
T1 construct: expressed in transfected cells; host or cells: HEK293T
T1 sequence (Q96RJ0 1-339 C178S): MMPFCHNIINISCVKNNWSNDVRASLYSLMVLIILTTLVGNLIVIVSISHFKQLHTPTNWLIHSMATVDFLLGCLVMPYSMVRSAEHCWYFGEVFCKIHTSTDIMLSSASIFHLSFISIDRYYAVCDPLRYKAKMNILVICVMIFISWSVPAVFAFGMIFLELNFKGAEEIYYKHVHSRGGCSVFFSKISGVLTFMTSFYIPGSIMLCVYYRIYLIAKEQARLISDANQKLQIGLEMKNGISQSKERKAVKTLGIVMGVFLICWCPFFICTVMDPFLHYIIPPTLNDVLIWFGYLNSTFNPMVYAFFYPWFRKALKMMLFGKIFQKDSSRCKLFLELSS

hTA1 b2N = biological target: T2, hTA1 b2N (Homo sapiens, UniProt Q96RJ0); experiment: GloSensor cAMP accumulation assay, b2N construct; type: cell-based; settings: b2N, n=2
T2 construct: read by me as the first 25 residues of β2AR (N); expressed in transfected cells; host or cells: HEK293T

hTA1 T194A = biological target: T3, hTA1 T194A (Homo sapiens, UniProt Q96RJ0, T194A); experiment: GloSensor cAMP accumulation assay, T194A mutant; settings: for cAMP accumulation response, individual replicate values of the concentration-response curve: hTA1 T194A, log[Agonist], Supplementary Figure 5 source data
T3 sequence (Q96RJ0 1-339 T194A): T1 sequence (Q96RJ0 1-339 C178S) with S178C, T194A

T2 sequence (Q96RJ0 with tags, fused parts or gaps): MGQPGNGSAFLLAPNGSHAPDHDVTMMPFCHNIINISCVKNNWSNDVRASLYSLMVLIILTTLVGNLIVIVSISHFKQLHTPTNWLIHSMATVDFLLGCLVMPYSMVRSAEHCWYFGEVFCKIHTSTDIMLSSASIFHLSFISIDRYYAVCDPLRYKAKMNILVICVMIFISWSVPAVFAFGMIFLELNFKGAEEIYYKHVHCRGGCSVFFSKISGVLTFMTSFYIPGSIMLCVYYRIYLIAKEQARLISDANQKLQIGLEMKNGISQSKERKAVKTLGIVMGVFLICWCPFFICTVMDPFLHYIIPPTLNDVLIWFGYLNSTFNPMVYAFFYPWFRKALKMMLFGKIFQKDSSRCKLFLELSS

**Q.** Which “ΔpEC50 values (each mutant value - WT average), Mean” value (hTA1 C178S; C178S, each row one experiment (N=2), 3 replicates) does the source give for `NCCc1ccc(O)cc1` [TYR, tyramine] here?
**A.** 0.02169 and 0.1822

**Q.** And the EC50 (hTA1 C178S; C178S, each row one experiment (N=2), 3 replicates, read-out: pEC50 values, Mean (converted))?
**A.** 395 nM and 273 nM

**Q.** And the EC50 (hTA1 C178S; C178S, n=2, read-out: EC50)?
**A.** 328 nM

**Q.** And the Emax (hTA1 C178S; C178S, n=2, read-out: Span ± SEM (Emax normalized to β-PEA))?
**A.** 98.4 ± 1.77%

**Q.** What about the “Emax values, Mean” value (hTA1 C178S; C178S, β-PEA = 100, each row one experiment (N=2), 3 replicates) of the same molecule?
**A.** 100.127

**Q.** And the Emax (hTA1 C178S; C178S, β-PEA = 100, each row one experiment (N=2), 3 replicates, read-out: Emax values, Mean)?
**A.** 96.6%

**Q.** And the “C178S - Normalized Luminescence Counts (N=2)” value (hTA1 C178S; M = -5)?
**A.** 91.979 and 95.8576 and 102.026 and 75.3904 and 102.974 and 107.581

**Q.** What about the “C178S - Normalized Luminescence Counts (N=2)” value (hTA1 C178S; M = -5.522) of the same molecule?
**A.** 87.8668 and 77.3994 and 76.8387 and 82.4508 and 101.179 and 88.1949

**Q.** And the “C178S - Normalized Luminescence Counts (N=2)” value (hTA1 C178S; M = -6)?
**A.** 67.8199 and 64.4086 and 66.1843 and 84.2459 and 87.7162 and 94.2082

**Q.** And the “C178S - Normalized Luminescence Counts (N=2)” value (hTA1 C178S; M = -6.522)?
**A.** 42.5859 and 50.2963 and 40.4364 and 48.0464 and 47.119 and 50.6791

**Q.** And the “C178S - Normalized Luminescence Counts (N=2)” value (hTA1 C178S; M = -7)?
**A.** 17.0716 and 19.2212 and 22.0717 and 25.7583 and 28.0918 and 27.3439

**Q.** What about the “C178S - Normalized Luminescence Counts (N=2)” value (hTA1 C178S; M = -7.522) of the same molecule?
**A.** 4.922 and 5.576 and 4.735 and 10.3511 and 8.496 and 10.8597

**Q.** What about the “C178S - Normalized Luminescence Counts (N=2)” value (hTA1 C178S; M = -8) of the same molecule?
**A.** 0.8565 and 3.099 and 2.0247 and 3.141 and 5.295 and 4.428

**Q.** And the “C178S - Normalized Luminescence Counts (N=2)” value (hTA1 C178S; M = -8.522)?
**A.** -0.4052 and -0.03139 and 0.3892 and 0.9572 and 2.034 and 4.517

**Q.** And the “C178S - Normalized Luminescence Counts (N=2)” value (hTA1 C178S; M = -9)?
**A.** -1.013 and -1.2 and 0.1555 and -0.5985 and 0.02978 and 0.3589

**Q.** What about the “C178S - Normalized Luminescence Counts (N=2)” value (hTA1 C178S; M = -9.522) of the same molecule?
**A.** -0.5454 and -1.1529 and -1.2 and -0.9575 and 1.615 and 1.376

**Q.** And the “C178S - Normalized Luminescence Counts (N=2)” value (hTA1 C178S; M = -10)?
**A.** -0.4052 and -0.07812 and -0.966 and 0.5982 and 1.645 and 1.346

**Q.** What about the “C178S - Normalized Luminescence Counts (N=2)” value (hTA1 C178S; M = -10.522) of the same molecule?
**A.** -0.7791 and -0.3118 and -0.5921 and -2.214 and -0.2395 and -1.047

**Q.** What about the “C178S - Normalized Luminescence Counts (N=2)” value (hTA1 C178S; M = -11) of the same molecule?
**A.** -0.8258 and -0.3585 and -1.106 and 0.08961 and 2.782 and 2.932

**Q.** And the “C178S - Normalized Luminescence Counts (N=2)” value (hTA1 C178S; M = -11.522)?
**A.** -0.1716 and 0.1555 and 0.1088 and 1.047 and 3.051 and 2.303

**Q.** And the “C178S - Normalized Luminescence Counts (N=2)” value (hTA1 C178S; M = -12)?
**A.** -0.9193 and -0.3118 and -0.6389 and 0.6281 and 2.423 and 2.214

**Q.** And the “C178S - Normalized Luminescence Counts (N=2)” value (hTA1 C178S; M = -12.522)?
**A.** 0.2023 and -0.07812 and -0.03139 and -1.077 and 1.944 and 2.603

**Q.** And the EC50 (hTA1 b2N; read-out: EC50)?
**A.** 151 nM

**Q.** What about the Emax (hTA1 b2N; read-out: Span ± SEM (Emax normalized to β-PEA)) of the same molecule?
**A.** 99.5 ± 1%

**Q.** And the “Emax values, Mean” value (hTA1 T194A; T149A (so in the source), single experiments (3 replicates each), β-PEA = 100)?
**A.** 107.638 and 114.006 and 104.682

**Q.** And the “increase in potency vs wild type” value (hTA1 T194A; T194A)?
**A.** over 10 fold

**Q.** And the “cAMP accumulation response, individual replicate values of the concentration-response curve” value (“cAMP accumulation response” for short) (hTA1 T194A; M = -7.522)?
**A.** 49.8086 and 42.1239 and 66.6609 and 74.3619 and 75.9423 and 70.8058 and 84.4051 and 77.1239 and 72.2846

**Q.** What about the “cAMP accumulation response” value (hTA1 T194A; M = -8) of the same molecule?
**A.** 33.9 and 32.0125 and 38.7535 and 48.6794 and 43.1478 and 39.7894 and 64.0267 and 60.8745 and 66.5574

**Q.** And the “cAMP accumulation response” value (hTA1 T194A; M = -8.522)?
**A.** 15.6995 and 22.1708 and 14.0817 and 16.28 and 19.441 and 18.4532 and 29.6632 and 30.1959 and 31.2615

**Q.** And the “cAMP accumulation response” value (hTA1 T194A; M = -9)?
**A.** 1.409 and 7.206 and 6.936 and 8.575 and 6.7973 and 9.5631 and 13.5914 and 13.9909 and 14.0797

**Q.** What about the “cAMP accumulation response” value (hTA1 T194A; M = -9.522) of the same molecule?
**A.** 1.813 and 2.083 and -1.153 and 1.068 and 2.253 and 1.463 and 4.046 and 5.511 and 3.469

**Q.** What about the “cAMP accumulation response” value (hTA1 T194A; M = -10) of the same molecule?
**A.** -1.827 and -1.288 and -1.4224 and 2.056 (2×) and 1.661 and 1.693 and 1.604 and 1.782

**Q.** What about the “cAMP accumulation response” value (hTA1 T194A; M = -10.522) of the same molecule?
**A.** -1.827 and -0.7483 and -1.153 and 0.2779 and -0.3148 and -0.1172 and 1.027 and 0.8937 (2×)

**Q.** And the “cAMP accumulation response” value (hTA1 T194A; M = -11)?
**A.** -0.4787 and -1.692 and -1.153 and 0.2779 and -1.105 and -1.303 and -0.971 and 0.4497 and 0.1834
